Reference: ChEMBL document CHEMBL1201862, “PubChem BioAssay data set” (2004)
Calls of active or inactive are those of the source.

Key:
cells [1] = assay type: functional, cell-based
[2] = molecular target: T1, Heat shock factor protein 1 (Mus musculus, UniProt P38532); experiment: decrease of HSF1-responsive luciferase luminescence – cell-based, NIH3T3, dose retest, confirmation (AID 2382); assay type: functional;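 also: NIH3T3 fibroblasts with HSF1-driven luciferase reporter stressed by proteasome inhibitor MG132; luminescence from HSF1-driven luciferase expression after 8 hours of MG132 stress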
T1 sequence (P38532 whole entry): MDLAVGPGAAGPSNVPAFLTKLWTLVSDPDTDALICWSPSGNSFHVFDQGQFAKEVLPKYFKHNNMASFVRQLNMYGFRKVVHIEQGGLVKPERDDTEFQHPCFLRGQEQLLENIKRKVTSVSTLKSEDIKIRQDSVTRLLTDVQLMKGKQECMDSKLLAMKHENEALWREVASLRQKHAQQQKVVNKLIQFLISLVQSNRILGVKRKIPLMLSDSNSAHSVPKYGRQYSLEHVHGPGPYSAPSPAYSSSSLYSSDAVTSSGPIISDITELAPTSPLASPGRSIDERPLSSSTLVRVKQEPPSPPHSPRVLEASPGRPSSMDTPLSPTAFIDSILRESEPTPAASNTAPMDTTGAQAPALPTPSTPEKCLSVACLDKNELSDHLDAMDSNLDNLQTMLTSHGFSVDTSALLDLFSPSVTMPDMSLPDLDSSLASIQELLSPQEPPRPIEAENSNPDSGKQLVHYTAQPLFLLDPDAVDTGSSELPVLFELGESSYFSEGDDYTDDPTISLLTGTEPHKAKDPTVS

cells [3] = assay type: functional, cell-based; remark: listed apart in the source
HEK293 = experiment: EBV LMP1 TES2 canonical NF-kB signalling blockers – cell-based, HEK293, luciferase, cherry-pick, dose response (AID 588343); assay type: functional; conditions: Homo sapiens
[4] = molecular target: Glyceraldehyde-3-phosphate dehydrogenase (Homo sapiens, UniProt P04406)
[5] = molecular target: T2, Alkaline phosphatase, tissue-nonspecific isozyme (Homo sapiens, UniProt P05186); experiment: potency against alkaline phosphatase TNAP – biochemical, luminescent, dose response, SAR follow-up (AID 1056)
T2 sequence (P05186 whole entry): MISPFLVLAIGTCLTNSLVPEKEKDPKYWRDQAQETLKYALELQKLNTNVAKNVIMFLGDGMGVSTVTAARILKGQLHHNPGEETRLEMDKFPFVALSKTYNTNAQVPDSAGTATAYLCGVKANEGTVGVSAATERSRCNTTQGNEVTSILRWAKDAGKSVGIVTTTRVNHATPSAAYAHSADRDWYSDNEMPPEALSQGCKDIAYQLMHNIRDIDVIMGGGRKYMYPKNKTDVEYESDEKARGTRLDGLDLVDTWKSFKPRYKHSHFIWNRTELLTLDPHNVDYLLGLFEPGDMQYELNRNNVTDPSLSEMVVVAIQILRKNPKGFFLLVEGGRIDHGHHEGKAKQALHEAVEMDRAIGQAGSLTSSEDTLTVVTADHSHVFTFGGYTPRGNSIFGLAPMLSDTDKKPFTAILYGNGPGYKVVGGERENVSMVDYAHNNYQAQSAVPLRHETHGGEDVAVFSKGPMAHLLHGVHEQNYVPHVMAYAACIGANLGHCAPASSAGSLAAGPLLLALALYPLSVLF

[6] = Luminescence Cell-Based Dose Retest to Confirm Inhibitors of Cancer Stem Cells. [Related pubchem assays (depositor defined):AID2717, AID2721]; assay type: functional; conditions: Homo sapiens
Vero = experiment: cells; assay type: functional; conditions: Chlorocebus sabaeus
Troponin, cardiac muscle = Troponin, cardiac muscle (Homo sapiens, UniProt P19429+P45379+P63316); experiment: Fluorescence-based biochemical high throughput dose response assay for activators of the calcium sensitivity of cardiac Regulated Thin Filaments (RTF). [Related pubchem assays (depositor defined):AID493008, AID493018, AID504382, AID504383]; assay type: protein-complex assay
HeLa = experiment: ATP-based viability loss in HeLa cells – cell-based, CellTiter-Glo luminescence, cherry-pick samples, cytotoxicity control for MITF activator project, dose response (AID 540259); assay type: functional; conditions: Homo sapiens
[7] = molecular target: T3, Microphthalmia-associated transcription factor (Homo sapiens, UniProt O75030); experiment: reducers of TRPM1 reporter luminescence, concentration series – cell-based, SK-MEL-5, cherry-picked, set 3, MITF inhibitor project, dose response (AID 493073); assay type: functional;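 also: SK-MEL-5 melanoma cells with luciferase driven by the MITF target TRPM1 promoter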
T3 sequence (O75030 whole entry): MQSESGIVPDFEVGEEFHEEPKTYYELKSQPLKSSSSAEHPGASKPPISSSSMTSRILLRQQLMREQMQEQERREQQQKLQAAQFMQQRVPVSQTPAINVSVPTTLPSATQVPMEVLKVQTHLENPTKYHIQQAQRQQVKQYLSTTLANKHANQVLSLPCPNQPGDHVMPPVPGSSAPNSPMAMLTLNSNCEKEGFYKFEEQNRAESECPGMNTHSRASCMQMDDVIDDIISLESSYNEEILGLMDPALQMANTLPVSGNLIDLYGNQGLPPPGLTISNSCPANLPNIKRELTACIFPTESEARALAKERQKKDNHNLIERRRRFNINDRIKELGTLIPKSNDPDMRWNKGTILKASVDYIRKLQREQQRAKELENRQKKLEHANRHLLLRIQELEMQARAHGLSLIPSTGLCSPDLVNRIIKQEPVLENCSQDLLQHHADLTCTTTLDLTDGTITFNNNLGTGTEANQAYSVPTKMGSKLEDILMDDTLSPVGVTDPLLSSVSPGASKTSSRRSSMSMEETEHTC

[8] = Trypanosoma cruzi growth suppression in host cells – NIH3T3 host cells, beta-gal luminescence, confirmation (AID 2044); assay type: functional, cell-based;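 also: intracellular parasites grown in NIH/3T3 mouse fibroblasts as host cells; luminescent beta-galactosidase reporter signal from transgenic T. cruzi replicating inside host cells; inhibitors lower the luminescence signal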
[9] = NIH3T3 cell viability loss – ATP luminescence, mouse fibroblasts, counter-screen, dose response (AID 2010); assay type: functional, cell-based;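 also: cells exposed to compound for about 90 hours before reading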
[10] = molecular target: T4, Replicative DNA helicase DnaB (Mycobacterium tuberculosis, UniProt P9WMR3); experiment: DnaB intein splicing inhibitors, dose response, biochemical, cell-free fluorescence (AID 449749); assay type: functional
T4 sequence (P9WMR3 whole entry): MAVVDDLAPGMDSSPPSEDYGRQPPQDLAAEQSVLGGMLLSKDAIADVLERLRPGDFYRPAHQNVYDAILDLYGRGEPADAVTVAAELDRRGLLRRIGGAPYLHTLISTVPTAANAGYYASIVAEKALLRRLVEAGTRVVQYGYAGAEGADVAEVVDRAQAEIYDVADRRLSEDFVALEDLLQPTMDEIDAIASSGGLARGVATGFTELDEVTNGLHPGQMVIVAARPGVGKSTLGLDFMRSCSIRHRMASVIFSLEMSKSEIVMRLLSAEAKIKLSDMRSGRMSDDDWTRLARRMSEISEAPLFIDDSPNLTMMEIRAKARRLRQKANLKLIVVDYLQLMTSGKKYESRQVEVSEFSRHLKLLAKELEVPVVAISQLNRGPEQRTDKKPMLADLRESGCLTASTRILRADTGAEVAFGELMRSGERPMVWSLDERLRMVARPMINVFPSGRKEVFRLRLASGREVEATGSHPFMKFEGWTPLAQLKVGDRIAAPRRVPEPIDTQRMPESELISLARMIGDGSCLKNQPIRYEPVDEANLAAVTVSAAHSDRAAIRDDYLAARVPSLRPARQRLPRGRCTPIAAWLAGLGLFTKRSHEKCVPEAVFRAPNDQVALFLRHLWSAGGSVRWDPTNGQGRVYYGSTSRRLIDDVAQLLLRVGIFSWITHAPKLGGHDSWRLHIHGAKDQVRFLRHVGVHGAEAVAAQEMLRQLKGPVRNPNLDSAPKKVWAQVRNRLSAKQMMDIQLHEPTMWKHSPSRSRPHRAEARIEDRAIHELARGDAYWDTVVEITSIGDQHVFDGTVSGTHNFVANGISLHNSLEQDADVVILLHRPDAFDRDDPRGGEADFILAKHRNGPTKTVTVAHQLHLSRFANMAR

Protein RecA = molecular target: T5, Protein RecA (Mycobacterium tuberculosis, UniProt P9WHJ3); experiment: Fluorescence Cell-Free Homogeneous Dose Retest to Identify Inhibitors of RecA-Intein Splicing Activity. [Related pubchem assays (depositor defined):AID2097, AID2223, AID489010, AID492950]; assay type: functional
T5 sequence (P9WHJ3 whole entry): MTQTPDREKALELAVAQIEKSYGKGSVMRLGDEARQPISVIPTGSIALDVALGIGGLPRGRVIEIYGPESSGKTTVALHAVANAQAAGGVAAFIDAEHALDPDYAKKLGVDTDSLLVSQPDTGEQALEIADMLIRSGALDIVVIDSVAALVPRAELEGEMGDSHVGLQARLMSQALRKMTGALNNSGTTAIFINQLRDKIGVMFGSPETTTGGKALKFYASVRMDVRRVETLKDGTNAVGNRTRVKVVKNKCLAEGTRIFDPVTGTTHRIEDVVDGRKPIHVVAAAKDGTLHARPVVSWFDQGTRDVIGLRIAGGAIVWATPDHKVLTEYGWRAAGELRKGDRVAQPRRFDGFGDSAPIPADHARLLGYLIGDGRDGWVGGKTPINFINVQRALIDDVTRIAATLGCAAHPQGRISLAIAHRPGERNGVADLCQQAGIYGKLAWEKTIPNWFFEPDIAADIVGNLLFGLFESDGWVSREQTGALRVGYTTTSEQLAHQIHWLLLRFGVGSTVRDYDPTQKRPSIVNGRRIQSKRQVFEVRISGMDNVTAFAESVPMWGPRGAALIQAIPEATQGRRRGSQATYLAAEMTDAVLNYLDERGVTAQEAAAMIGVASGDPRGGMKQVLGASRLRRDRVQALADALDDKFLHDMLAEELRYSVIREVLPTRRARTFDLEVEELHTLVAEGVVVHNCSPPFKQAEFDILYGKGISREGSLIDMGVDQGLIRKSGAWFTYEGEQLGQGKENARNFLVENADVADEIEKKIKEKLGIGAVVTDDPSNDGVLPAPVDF

Cytochrome P450 3A4 = Cytochrome P450 3A4 (Homo sapiens, UniProt P08684);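 also: CYP3A4 tested as one member of a cytochrome P450 panel screen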

In the case of `C[C@@H](C(=O)Nc1ccc2c(c1)OCCO2)n1c(=O)[nH]c2ccccc2c1=O`, the EC50 (cells [1]) is reported as > 350 µM (not active), the EC50 [2] is reported as 377 nM (active) and the EC50 (cells [3]) is reported as > 350 µM (not active). For the same compound, the AC50 (HEK293) was 6.08 µM (active).

With `Cc1ccc(-c2cc(C(=O)O)[nH]n2)cc1C` the IC50 [4] was > 100 µM (not active) and the IC50 [5] was 62.9 µM (active).

For `N#Cc1c(NC(=O)CCCC(=O)O)sc2c1CCCCC2`, the AC50 (HEK293) was 4.36 µM (active).

In the case of `CC1=NN(c2ccccc2)C(=O)/C1=C/C=C/c1ccccc1`, the AC50 [6] is reported as 2.41 µM (active) and the CC50 (Vero) is reported as 11.3 µM (active).

With `COc1ccccc1-c1nnc(SCc2nc3ccccc3s2)n1C` the EC50 (Troponin, cardiac muscle) was > 71.5 µM (inactive).

With `CC1CCC(NC(=O)c2cc3ccccc3cc2O)CC1` (centres undefined) the AC50 (HeLa) was 35.2 µM (active).

With `COc1ccc(CCNC(=O)COC(=O)c2cc(=O)[nH]c3ccccc23)cc1` the EC50 (Troponin, cardiac muscle) was > 71.5 µM (inactive).

For `COc1cc(OC)cc(-c2oc(=O)c3cc(OC)c(OC)cc3c2C(F)(F)F)c1`, the AC50 [7] was 12.8 µM (active).

For `CCN(CC)S(=O)(=O)c1cccc(C(=O)N/N=C/c2ccc([N+](=O)[O-])o2)c1`, the EC50 [8] was 218 nM (active), the EC50 [9] was 13.3 µM (active) and the AC50 [7] was 14.1 µM (active).

In the case of `CN(C(=O)C(Cl)Cl)c1ccc(OC(=O)c2ccco2)cc1` [DILOXANIDE FUROATE], the AC50 [10] is reported as 13.9 µM (active), the EC50 (Protein RecA) is reported as 10.3 µM (active) and the AC50 (Cytochrome P450 3A4) is reported as “inconclusive”.
